Measurements published in patent publication US20260325533A1, “CDK INHIBITOR COMPOUNDS” (ALEKSIA THERAPEUTICS, INC., priority 2023, published 2026).
Where two headings read alike, the source gives them in different places.

Key:
Assay type in all cases: biochemical
CDK1/CCNB1 = CDK1/CCNB1 (Homo sapiens, UniProt P06493); assay: CDK1 homogeneous time-resolved fluorescence (HTRF) kinase assay; conditions: CDK1/CCNB
In short: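 High-ATP (1 mM) HTRF assay with 0.5 nM CDK1/cyclin B1 and 50 nM ULight-4E-BP1 (Thr37/46) substrate, 60 min at 23 °C after 20-min compound preincubation. IC50 values come from dose-response curves.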

CDK2/CCNE1 = CDK2/CCNE1 (Homo sapiens, UniProt P24941); assay: CDK2 homogeneous time-resolved fluorescence (HTRF) kinase assay; conditions: CDK2/CCNE
In short: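 CDK2/CCNE1 (3 nM) preincubated 20 min at 23 °C with compound, then reacted 60 min at 23 °C with 1 mM ATP and 50 nM ULight-4E-BP1 (Thr37/46) peptide. Stopped with EDTA, phospho-peptide detected by Eu-anti-phospho antibody (665 nm or 665/615 ratio). IC50 from 11-point half-log titrations typically starting at 10 μM.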

CDK4/CCND3 = CDK4/CCND3 (Homo sapiens, UniProt P11802); assay: CDK4 homogeneous time-resolved fluorescence (HTRF) kinase assay; conditions: CDK4/CCND
In short: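 Inhibition of CDK4/CCND3 (1.5 nM) was measured at high ATP (1 mM) using 50 nM ULight-labelled 4E-BP1 Thr37/46 peptide; detection used 2 nM europium anti-phospho antibody after EDTA quench. IC50 values came from 11-point half-log titrations typically starting at 10 μM.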

CDK6/CCND1 = CDK6/CCND1 (Homo sapiens, UniProt Q00534); assay: CDK6 homogeneous time-resolved fluorescence (HTRF) kinase assay; conditions: CDK6/CCND, 1 mM ATP
In short: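 1 nM enzyme, 1 mM ATP, 50 nM ULight-4E-BP1 (Thr37/46) peptide, 1% DMSO; 20 min compound preincubation, 60 min reaction, 23 °C. EDTA stop, 2 nM Eu-anti-phospho-4E-BP1 antibody 60 min. TR-FRET 665 nm (or 665/615 ratio); IC50 from 11-point half-log titration, top 10 μM.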

[1] = 25-250 nM, read-out: CDK1/CCNB IC50, 25-250 nM
[2] = <25 nM, read-out: CDK2/CCNE IC50, <25 nM
[3] = 25-250 nM, read-out: CDK4/CCND IC50, 25-250 nM
[4] = 25-250 nM, read-out: CDK6/CCND IC50, 25-250 nM
[5] = >250 nM, read-out: CDK1/CCNB IC50 >250 nM
[6] = 25-250 nM, read-out: CDK2/CCNE IC50, 25-250 nM
[7] = >250 nM, read-out: CDK4/CCND IC50, >250 nM
[8] = >250 nM, read-out: CDK6/CCND IC50, >250 nM

CDK4/CCND3, sequence (P11802 whole entry): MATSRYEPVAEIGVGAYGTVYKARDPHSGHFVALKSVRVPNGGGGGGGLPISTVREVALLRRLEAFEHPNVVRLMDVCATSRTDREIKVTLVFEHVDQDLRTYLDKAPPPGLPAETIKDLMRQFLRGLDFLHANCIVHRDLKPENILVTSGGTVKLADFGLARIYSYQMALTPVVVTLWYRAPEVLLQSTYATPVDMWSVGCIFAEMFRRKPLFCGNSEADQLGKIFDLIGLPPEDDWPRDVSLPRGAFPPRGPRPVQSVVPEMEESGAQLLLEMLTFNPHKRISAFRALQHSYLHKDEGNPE
CDK4/CCND3, sequence (P30281 whole entry partner): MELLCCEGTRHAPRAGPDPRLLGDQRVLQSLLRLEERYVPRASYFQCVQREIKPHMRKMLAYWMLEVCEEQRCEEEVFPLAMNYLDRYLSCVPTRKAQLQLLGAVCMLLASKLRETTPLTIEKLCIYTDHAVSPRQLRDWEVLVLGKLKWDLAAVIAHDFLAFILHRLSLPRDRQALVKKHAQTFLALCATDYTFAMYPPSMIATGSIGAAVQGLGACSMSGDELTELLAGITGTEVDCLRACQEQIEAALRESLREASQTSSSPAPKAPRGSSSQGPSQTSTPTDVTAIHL
CDK1/CCNB1, sequence (P06493 whole entry): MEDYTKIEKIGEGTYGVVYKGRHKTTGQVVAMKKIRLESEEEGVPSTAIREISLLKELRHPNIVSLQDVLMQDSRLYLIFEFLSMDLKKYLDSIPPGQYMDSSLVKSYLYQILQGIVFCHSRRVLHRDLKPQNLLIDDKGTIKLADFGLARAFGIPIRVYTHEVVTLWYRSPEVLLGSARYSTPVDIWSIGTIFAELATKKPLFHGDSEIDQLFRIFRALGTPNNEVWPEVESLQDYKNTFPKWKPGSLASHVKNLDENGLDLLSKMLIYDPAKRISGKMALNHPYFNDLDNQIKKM
CDK1/CCNB1, sequence (P14635 whole entry partner): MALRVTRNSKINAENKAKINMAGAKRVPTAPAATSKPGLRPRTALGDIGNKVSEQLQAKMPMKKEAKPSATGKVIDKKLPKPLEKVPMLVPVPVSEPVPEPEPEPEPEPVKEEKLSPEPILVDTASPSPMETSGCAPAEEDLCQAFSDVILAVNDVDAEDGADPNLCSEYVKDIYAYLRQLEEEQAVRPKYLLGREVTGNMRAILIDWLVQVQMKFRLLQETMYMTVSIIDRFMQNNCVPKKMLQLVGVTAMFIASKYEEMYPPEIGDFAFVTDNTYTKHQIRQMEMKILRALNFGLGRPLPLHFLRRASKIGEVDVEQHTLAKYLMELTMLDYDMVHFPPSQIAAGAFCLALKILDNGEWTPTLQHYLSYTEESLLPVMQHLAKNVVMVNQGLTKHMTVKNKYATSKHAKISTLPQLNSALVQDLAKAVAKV
CDK6/CCND1, sequence (Q00534 whole entry): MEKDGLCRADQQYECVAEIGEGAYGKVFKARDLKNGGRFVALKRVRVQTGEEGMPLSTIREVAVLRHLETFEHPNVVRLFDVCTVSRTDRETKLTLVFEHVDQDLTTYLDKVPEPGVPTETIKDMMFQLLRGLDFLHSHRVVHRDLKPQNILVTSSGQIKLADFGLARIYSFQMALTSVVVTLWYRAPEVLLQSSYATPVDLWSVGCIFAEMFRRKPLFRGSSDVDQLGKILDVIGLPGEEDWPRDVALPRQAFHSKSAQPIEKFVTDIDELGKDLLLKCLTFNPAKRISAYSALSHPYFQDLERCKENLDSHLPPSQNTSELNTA
CDK6/CCND1, sequence (P24385 whole entry partner): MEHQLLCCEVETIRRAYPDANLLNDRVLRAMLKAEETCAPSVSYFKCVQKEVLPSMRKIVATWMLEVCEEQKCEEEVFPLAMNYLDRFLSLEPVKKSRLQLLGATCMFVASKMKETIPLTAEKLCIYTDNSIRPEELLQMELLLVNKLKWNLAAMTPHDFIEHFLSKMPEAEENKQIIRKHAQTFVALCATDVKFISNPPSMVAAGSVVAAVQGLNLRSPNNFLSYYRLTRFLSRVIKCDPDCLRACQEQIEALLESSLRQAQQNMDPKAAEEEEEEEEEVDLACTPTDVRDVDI

Structure (SMILES) | IC50 (CDK1/CCNB1; [1]) [nM] | IC50 (CDK2/CCNE1; [2]) [nM] | IC50 (CDK4/CCND3; [3]) [nM] | IC50 (CDK6/CCND1; [4]) [nM] | IC50 (CDK1/CCNB1; [5]) [nM] | IC50 (CDK2/CCNE1; [6]) [nM] | IC50 (CDK4/CCND3; [7]) [nM] | IC50 (CDK6/CCND1; [8]) [nM] | IC50 (CDK2/CCNE1; >250 nM, read-out: CDK2/CCNE IC50, >250 nM) [nM]
Cc1c(-c2nccc3cnc(Nc4ccc(NS(=O)(=O)c5cccs5)cc4)cc23)ccc2c1cnn2CC(C)(C)O [Ex 834, N-(4-((5-(1-(2-hydroxy-2-methylpropyl)-4-methyl-1H-indazol-5-yl)-2,6-naphthyridin-3-yl)amino)phenyl)thiophene-2-sulfonamide] |  | < 25 |  |  | > 250 |  | > 250 | > 250 | 
Cc1cc(Nc2cc3c(-c4ccc5c(cnn5CC(C)(C)O)c4C)nccc3cn2)ccc1S(C)(=O)=O [Ex 836, 2-methyl-1-(4-methyl-5-(7-((3-methyl-4-(methylsulfonyl)phenyl)amino)-2,6-naphthyridin-1-yl)-1H-indazol-1-yl)propan-2-ol] |  | < 25 |  |  | > 250 |  | > 250 | > 250 | 
COc1cc(Nc2cc3c(-c4ccc5c(cnn5CC(C)(C)O)c4C)nccc3cn2)ccc1S(C)(=O)=O [Ex 837, 1-(5-(7-((3-methoxy-4-(methylsulfonyl)phenyl)amino)-2,6-naphthyridin-1-yl)-4-methyl-1H-indazol-1-yl)-2-methylpropan-2-ol] |  |  |  |  | > 250 | 25 to 250 | > 250 | > 250 | 
COc1cc(S(C)(=O)=O)ccc1Nc1cc2c(-c3ccc4c(cnn4CC(C)(C)O)c3C)nccc2cn1 [Ex 838, 1-(5-(7-((2-methoxy-4-(methylsulfonyl)phenyl)amino)-2,6-naphthyridin-1-yl)-4-methyl-1H-indazol-1-yl)-2-methylpropan-2-ol] |  | < 25 |  |  | > 250 |  | > 250 | > 250 | 
C[C@@H]1CN(C)CCN1c1cc(Nc2cc3c(C#Cc4ccc(=O)[nH]n4)nccc3cn2)cnc1O [Ex 840, (R)-6-((7-((5-(2,4-dimethylpiperazin-1-yl)-6-hydroxypyridin-3-yl)amino)-2,6-naphthyridin-1-yl)ethynyl)pyridazin-3(2H)-one] |  |  |  |  | > 250 |  | > 250 | > 250 | > 250
Cc1nn(C)cc1S(=O)(=O)Nc1ccc(Nc2cc3c(-c4ccc5c(cnn5CC(C)(C)O)c4C)nccc3cn2)cc1 [Ex 843, N-(4-((5-(1-(2-hydroxy-2-methylpropyl)-4-methyl-1H-indazol-5-yl)-2,6-naphthyridin-3-yl)amino)phenyl)-1,3-dimethyl-1H-pyrazole-4-sulfonamide] |  | < 25 | 25 to 250 | 25 to 250 | > 250 |  |  |  | 
Cc1c(-c2nccc3cnc(Nc4ccc(S(C)(=O)=O)c(C(F)(F)F)c4)cc23)ccc2c1cnn2CC(C)(C)O [Ex 844, 2-methyl-1-(4-methyl-5-(7-((4-(methylsulfonyl)-3-(trifluoromethyl)phenyl)amino)-2,6-naphthyridin-1-yl)-1H-indazol-1-yl)propan-2-ol] |  |  |  |  | > 250 | 25 to 250 | > 250 | > 250 | 
Cc1cc(S(C)(=O)=O)ccc1Nc1cc2c(-c3ccc4c(cnn4CC(C)(C)O)c3C)nccc2cn1 [Ex 845, 2-methyl-1-(4-methyl-5-(7-((2-methyl-4-(methylsulfonyl)phenyl)amino)-2,6-naphthyridin-1-yl)-1H-indazol-1-yl)propan-2-ol] |  | < 25 |  | 25 to 250 | > 250 |  | > 250 |  | 
Cc1c(-c2nccc3cnc(Nc4ccc(S(C)(=O)=O)cc4F)cc23)ccc2c1cnn2CC(C)(C)O [Ex 846, 1-(5-(7-((2-fluoro-4-(methylsulfonyl)phenyl)amino)-2,6-naphthyridin-1-yl)-4-methyl-1H-indazol-1-yl)-2-methylpropan-2-ol] |  | < 25 |  |  | > 250 |  | > 250 | > 250 | 
Cc1c(-c2nccc3cnc(Nc4ccc(S(C)(=O)=O)cc4Cl)cc23)ccc2c1cnn2CC(C)(C)O [Ex 847, 1-(5-(7-((2-chloro-4-(methylsulfonyl)phenyl)amino)-2,6-naphthyridin-1-yl)-4-methyl-1H-indazol-1-yl)-2-methylpropan-2-ol] |  |  |  |  | > 250 | 25 to 250 | > 250 | > 250 | 
Cc1c(-c2nccc3cnc(Nc4ccc(S(C)(=O)=O)cn4)cc23)ccc2c1cnn2CC(C)(C)O [Ex 848, 2-methyl-1-(4-methyl-5-(7-((5-(methylsulfonyl)pyridin-2-yl)amino)-2,6-naphthyridin-1-yl)-1H-indazol-1-yl)propan-2-ol] |  | < 25 | 25 to 250 | 25 to 250 | > 250 |  |  |  | 

Next, values leading:

IC50 (CDK1/CCNB1; [1]) [nM] | IC50 (CDK2/CCNE1; [2]) [nM] | IC50 (CDK4/CCND3; [3]) [nM] | IC50 (CDK6/CCND1; [4]) [nM] | IC50 (CDK1/CCNB1; [5]) [nM] | IC50 (CDK2/CCNE1; [6]) [nM] | IC50 (CDK4/CCND3; [7]) [nM] | IC50 (CDK6/CCND1; [8]) [nM] | IC50 (CDK2/CCNE1; >250 nM, read-out: CDK2/CCNE IC50, >250 nM) [nM] | Structure (SMILES)
25 to 250 | < 25 | 25 to 250 | 25 to 250 |  |  |  |  |  | Cc1c(-c2nccc3cnc(Nc4ccc(NS(=O)(=O)c5ccn(C)n5)cc4)cc23)ccc2c1cnn2CC(C)(C)O [Ex 832, N-(4-((5-(1-(2-hydroxy-2-methylpropyl)-4-methyl-1H-indazol-5-yl)-2,6-naphthyridin-3-yl)amino)phenyl)-1-methyl-1H-pyrazole-3-sulfonamide]
 |  |  |  | > 250 | 25 to 250 | > 250 | > 250 |  | Cc1oncc1S(=O)(=O)Nc1ccc(Nc2cc3c(-c4ccc5c(cnn5CC(C)(C)O)c4C)nccc3cn2)cc1 [Ex 833, N-(4-((5-(1-(2-hydroxy-2-methylpropyl)-4-methyl-1H-indazol-5-yl)-2,6-naphthyridin-3-yl)amino)phenyl)-5-methylisoxazole-4-sulfonamide]
25 to 250 | < 25 | 25 to 250 | 25 to 250 |  |  |  |  |  | Cc1c(-c2nccc3cnc(Nc4ccc(NS(=O)(=O)c5cnn(C)c5)cc4)cc23)ccc2c1cnn2CC(C)(C)O [Ex 835, N-(4-((5-(1-(2-hydroxy-2-methylpropyl)-4-methyl-1H-indazol-5-yl)-2,6-naphthyridin-3-yl)amino)phenyl)-1-methyl-1H-pyrazole-4-sulfonamide]
25 to 250 | < 25 | 25 to 250 | 25 to 250 |  |  |  |  |  | Cc1c(-c2nccc3cnc(Nc4ccc(NS(=O)(=O)c5cccnc5)cc4)cc23)ccc2c1cnn2CC(C)(C)O [Ex 839, N-(4-((5-(1-(2-hydroxy-2-methylpropyl)-4-methyl-1H-indazol-5-yl)-2,6-naphthyridin-3-yl)amino)phenyl)pyridine-3-sulfonamide]
 | < 25 | 25 to 250 | 25 to 250 | > 250 |  |  |  |  | Cc1ccnc(NS(=O)(=O)c2ccc(Nc3cc4c(-c5ccc6c(cnn6CC(C)(C)O)c5C)nccc4cn3)cc2)c1 [Ex 841, 4-((5-(1-(2-hydroxy-2-methylpropyl)-4-methyl-1H-indazol-5-yl)-2,6-naphthyridin-3-yl)amino)-N-(4-methylpyridin-2-yl)benzenesulfonamide]
25 to 250 | < 25 | 25 to 250 | 25 to 250 |  |  |  |  |  | Cc1c(-c2nccc3cnc(Nc4ccc(S(=O)(=O)Nc5ccc(N6CCOCC6)nn5)cc4)cc23)ccc2c1cnn2CC(C)(C)O [Ex 842, 4-((5-(1-(2-hydroxy-2-methylpropyl)-4-methyl-1H-indazol-5-yl)-2,6-naphthyridin-3-yl)amino)-N-(6-morpholinopyridazin-3-yl)benzenesulfonamide]
 | < 25 | 25 to 250 | 25 to 250 | > 250 |  |  |  |  | Cc1c(-c2nccc3cnc(Nc4ccc(S(=O)(=O)Nc5ncc(N6CCN(C)CC6)cn5)cc4)cc23)ccc2c1cnn2CC(C)(C)O [Ex 849, 4-((5-(1-(2-hydroxy-2-methylpropyl)-4-methyl-1H-indazol-5-yl)-2,6-naphthyridin-3-yl)amino)-N-(5-(4-methylpiperazin-1-yl)pyrimidin-2-yl)benzenesulfonamide]
